Measured values: US20260207490A1, “Hydroxydiphenylethane compound ointment, use thereof, and method for preparing same” (Cutia Therapeutics (Wuxi) Co., Ltd., priority 2022, published 2026)

Assays:
[1] = Saturated solubility in different excipients; type: physicochemical
[2] = Saturated solubility in medium-chain triglycerides / isopropyl myristate / light liquid paraffin mixtures; type: physicochemical; settings: for Saturation solubility of 2-isopropyl-5-(2′-phenylethyl)-1,3-benzenediol: room temperature
Text: Experimental variables A, B, and C were set as the content of medium-chain triglycerides (%), isopropyl myristate (%), and light liquid paraffin (%), respectively (for the convenience of experimental design and operation, light liquid paraffin was used to represent all hydrocarbon compounds). According to the maximum safe dosage of excipients (FDA IID database), the variable range was set as follows: 0<A≤20, 0<B≤20. According to the preliminary experimental results (medium-chain triglycerides are more important for the dissolution of API and the stability of the system) and the requirements for the viscosity and skin feel of the ointment, the constraints were set as follows: A>B; A+B≤25%; A+B+C=100%.
According to the variable range and constraint conditions, a total of 20 experimental formulations were designed. After the components were mixed evenly in proportion, an excess of 2-isopropyl-5-(2′-phenylethyl)-1,3-benzenediol was added, stirred overnight at room temperature, centrifuged, the supernatant was filtered and diluted, and the saturated solubility of 2-isopropyl-5-(2′-phenylethyl)-1,3-benzenediol was tested.
The saturated solubility of 2-isopropyl-5-(2′-phenylethyl)-1,3-benzenediol in different proportions of medium-chain triglycerides, isopropyl myristate and light liquid paraffin solution was investigated to verify the accuracy of the prediction equation. The equation can accurately predict the solubility of API in different proportions of excipients. In practical applications, it is acceptable that the API content is within the range of no more than 1.2 times the saturated solubility, that is, 120%×(0.445829×A+0.032300×B−0.000599×C+0.008112×A×B−0.003841×A×C). Preferably, when the content of the active ingredient in the preparation is not higher than 0.445829×A+0.032300×B−0.000599×C+0.008112×A×B−0.003841×A×C, a better solution-type ointment can be prepared. It is further preferred that the content of the active ingredient in the preparation is not higher than 90% of the saturated solubility, that is, the content of the active ingredient in the preparation is not higher than 90%×(0.445829×A+0.032300×B−0.000599×C+0.008112×A×B−0.003841×A×C).

Structure (SMILES): CC(C)c1c(O)cc(CCc2ccccc2)cc1O [2-isopropyl-5-(2′-phenylethyl)-1,3-benzenediol]
- saturated solubility ([1]; in 10% glycerol): 0.00007%
- saturated solubility ([1]; in 20% ethanol): 0.02%
- saturated solubility ([1]; in Span 80): 3%
- saturated solubility ([1]; in diethylene glycol monoethyl ether): 52%
- saturated solubility ([1]; in isopropyl myristate): 27%
- saturated solubility ([1]; in isopropyl palmitate): 23%
- saturated solubility ([1]; in light liquid paraffin): 0.01%
- saturated solubility ([1]; in medium-chain triglycerides): 27%
- saturated solubility ([1]; in polyethylene glycol 400): 30%
- saturated solubility ([1]; in polysorbate 80): 17%
- saturated solubility ([1]; in propylene glycol): 30%
- saturated solubility ([1]; in propylene glycol monolaurate): 30%
- saturated solubility ([1]; in water): 0.0008%
- Saturation solubility of 2-isopropyl-5-(2′-phenylethyl)-1,3-benzenediol ([2]; experimental formulation 1: MCT 5.97%, isopropyl myristate 5.97%, light liquid paraffin 88.06%): 1.09%
- Saturation solubility of 2-isopropyl-5-(2′-phenylethyl)-1,3-benzenediol ([2]; experimental formulation 2: MCT 6.63%, isopropyl myristate 6.63%, light liquid paraffin 86.74%): 1.22%
- Saturation solubility of 2-isopropyl-5-(2′-phenylethyl)-1,3-benzenediol ([2]; experimental formulation 3: MCT 20.00%, isopropyl myristate 0.00%, light liquid paraffin 80.00%): 2.47%
- Saturation solubility of 2-isopropyl-5-(2′-phenylethyl)-1,3-benzenediol ([2]; experimental formulation 4: MCT 2.00%, isopropyl myristate 0.00%, light liquid paraffin 98.00%): 0.11%
- Saturation solubility of 2-isopropyl-5-(2′-phenylethyl)-1,3-benzenediol ([2]; experimental formulation 5: MCT 12.50%, isopropyl myristate 12.50%, light liquid paraffin 75.00%): 3.78%
- Saturation solubility of 2-isopropyl-5-(2′-phenylethyl)-1,3-benzenediol ([2]; experimental formulation 6: MCT 16.15%, isopropyl myristate 0.00%, light liquid paraffin 83.85%): 2.07%
- Saturation solubility of 2-isopropyl-5-(2′-phenylethyl)-1,3-benzenediol ([2]; experimental formulation 7: MCT 20.00%, isopropyl myristate 0.00%, light liquid paraffin 80.00%): 2.91%
- Saturation solubility of 2-isopropyl-5-(2′-phenylethyl)-1,3-benzenediol ([2]; experimental formulation 8: MCT 18.79%, isopropyl myristate 6.21%, light liquid paraffin 75.00%): 4.13%
- Saturation solubility of 2-isopropyl-5-(2′-phenylethyl)-1,3-benzenediol ([2]; experimental formulation 9: MCT 11.30%, isopropyl myristate 3.90%, light liquid paraffin 84.80%): 1.73%
- Saturation solubility of 2-isopropyl-5-(2′-phenylethyl)-1,3-benzenediol ([2]; experimental formulation 10: MCT 11.62%, isopropyl myristate 2.02%, light liquid paraffin 86.36%): 1.55%
- Saturation solubility of 2-isopropyl-5-(2′-phenylethyl)-1,3-benzenediol ([2]; experimental formulation 11: MCT 10.84%, isopropyl myristate 0.00%, light liquid paraffin 89.16%): 1.05%
- Saturation solubility of 2-isopropyl-5-(2′-phenylethyl)-1,3-benzenediol ([2]; experimental formulation 12: MCT 12.50%, isopropyl myristate 12.50%, light liquid paraffin 75.00%): 3.42%
- Saturation solubility of 2-isopropyl-5-(2′-phenylethyl)-1,3-benzenediol ([2]; experimental formulation 13: MCT 9.35%, isopropyl myristate 8.77%, light liquid paraffin 81.88%): 2.20%
- Saturation solubility of 2-isopropyl-5-(2′-phenylethyl)-1,3-benzenediol ([2]; experimental formulation 14: MCT 17.87%, isopropyl myristate 7.13%, light liquid paraffin 75.00%): 4.11%
- Saturation solubility of 2-isopropyl-5-(2′-phenylethyl)-1,3-benzenediol ([2]; experimental formulation 15: MCT 10.84%, isopropyl myristate 0.00%, light liquid paraffin 89.16%): 1.06%
- Saturation solubility of 2-isopropyl-5-(2′-phenylethyl)-1,3-benzenediol ([2]; experimental formulation 16: MCT 15.17%, isopropyl myristate 4.03%, light liquid paraffin 80.80%): 2.65%
- Saturation solubility of 2-isopropyl-5-(2′-phenylethyl)-1,3-benzenediol ([2]; experimental formulation 17: MCT 13.29%, isopropyl myristate 8.31%, light liquid paraffin 78.40%): 3.98%
- Saturation solubility of 2-isopropyl-5-(2′-phenylethyl)-1,3-benzenediol ([2]; experimental formulation 18: MCT 5.84%, isopropyl myristate 1.16%, light liquid paraffin 93.00%): 0.48%
- Saturation solubility of 2-isopropyl-5-(2′-phenylethyl)-1,3-benzenediol ([2]; experimental formulation 19: MCT 2.00%, isopropyl myristate 0.00%, light liquid paraffin 98.00%): 0.09%
- Saturation solubility of 2-isopropyl-5-(2′-phenylethyl)-1,3-benzenediol ([2]; experimental formulation 20: MCT 18.79%, isopropyl myristate 6.21%, light liquid paraffin 75.00%): 3.95%
- Measured saturated solubility ([2]; validation group 1: MCT 20%, isopropyl myristate 0.85%, light liquid paraffin 79.15%): 3.32%
- Measured saturated solubility ([2]; validation group 2: MCT 20%, isopropyl myristate 3.4%, light liquid paraffin 76.6%): 3.85%
- Measured saturated solubility ([2]; validation group 3: MCT 13.75%, isopropyl myristate 9.23%, light liquid paraffin 77.02%): 3.52%
- Measured saturated solubility ([2]; validation group 4: MCT 11.2%, isopropyl myristate 7.55%, light liquid paraffin 81.25%): 2.56%
- Measured saturated solubility ([2]; validation group 5: MCT 8.72%, isopropyl myristate 5.04%, light liquid paraffin 86.24%): 1.58%
- Measured saturated solubility ([2]; validation group 6: MCT 3%, isopropyl myristate 3%, light liquid paraffin 94%): 0.401%
- Measured saturated solubility ([2]; validation group 7: MCT 2%, isopropyl myristate 2%, light liquid paraffin 96%): 0.203%
